Experimental findings from ChEMBL document CHEMBL1137129, “Synthesis and structure-activity relationships of novel IKK-beta inhibitors. Part 2: Improvement of in vitro activity” (Bioorg Med Chem Lett, 2004) are described below.

Assay [1] concerns A549. Nature of the assay: TNF-alpha-induced RANTES production in A549 cells using ELISA assay. The assay is classed as functional, cell-based. Conditions: Homo sapiens.
In assay [2] the target is T1, Inhibitor of nuclear factor kappa-B kinase subunit beta (Homo sapiens, UniProt O14920).
T1 sequence (O14920 whole entry): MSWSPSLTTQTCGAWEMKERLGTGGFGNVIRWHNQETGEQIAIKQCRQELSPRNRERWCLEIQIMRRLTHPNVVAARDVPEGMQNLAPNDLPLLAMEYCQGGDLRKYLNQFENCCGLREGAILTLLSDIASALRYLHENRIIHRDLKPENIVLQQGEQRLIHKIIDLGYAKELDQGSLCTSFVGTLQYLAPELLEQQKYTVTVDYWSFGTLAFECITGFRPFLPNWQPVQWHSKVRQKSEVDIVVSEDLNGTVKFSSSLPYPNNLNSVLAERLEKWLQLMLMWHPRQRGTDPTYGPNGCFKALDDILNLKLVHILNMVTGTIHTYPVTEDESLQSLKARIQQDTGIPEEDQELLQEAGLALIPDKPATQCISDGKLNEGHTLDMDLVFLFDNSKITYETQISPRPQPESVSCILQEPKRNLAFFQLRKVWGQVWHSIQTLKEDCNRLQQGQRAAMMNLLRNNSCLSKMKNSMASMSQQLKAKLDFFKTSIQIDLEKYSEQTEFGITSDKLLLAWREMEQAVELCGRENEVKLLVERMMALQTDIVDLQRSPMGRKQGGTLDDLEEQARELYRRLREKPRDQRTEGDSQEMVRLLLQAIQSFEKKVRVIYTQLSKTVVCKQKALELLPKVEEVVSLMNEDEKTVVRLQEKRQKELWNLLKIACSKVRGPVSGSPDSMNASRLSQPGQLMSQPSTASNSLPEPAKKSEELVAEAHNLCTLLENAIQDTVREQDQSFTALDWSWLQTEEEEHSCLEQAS
Nature of the assay: Inhibitory activity against recombinant human I-kappa-B-kinase beta.

Assay [3] is described as follows: Tested for anti-CD3/anti-CD28-induced IL-2 production in Jurkat T-cell. Conditions: Homo sapiens. The assay is classed as functional, cell-based.
In assay [4] the test system is PBMC. Put plainly: Tested for LPS induced TNFalpha production in human PBMC cells. It counts as functional, cell-based.
A short description of assay [5]: Inhibition of Mitogen activated protein kinase kinase 4.
The target of assay [6] is T2, Inhibitor of nuclear factor kappa-B kinase subunit alpha (Homo sapiens, UniProt O15111).
T2 sequence (O15111 whole entry): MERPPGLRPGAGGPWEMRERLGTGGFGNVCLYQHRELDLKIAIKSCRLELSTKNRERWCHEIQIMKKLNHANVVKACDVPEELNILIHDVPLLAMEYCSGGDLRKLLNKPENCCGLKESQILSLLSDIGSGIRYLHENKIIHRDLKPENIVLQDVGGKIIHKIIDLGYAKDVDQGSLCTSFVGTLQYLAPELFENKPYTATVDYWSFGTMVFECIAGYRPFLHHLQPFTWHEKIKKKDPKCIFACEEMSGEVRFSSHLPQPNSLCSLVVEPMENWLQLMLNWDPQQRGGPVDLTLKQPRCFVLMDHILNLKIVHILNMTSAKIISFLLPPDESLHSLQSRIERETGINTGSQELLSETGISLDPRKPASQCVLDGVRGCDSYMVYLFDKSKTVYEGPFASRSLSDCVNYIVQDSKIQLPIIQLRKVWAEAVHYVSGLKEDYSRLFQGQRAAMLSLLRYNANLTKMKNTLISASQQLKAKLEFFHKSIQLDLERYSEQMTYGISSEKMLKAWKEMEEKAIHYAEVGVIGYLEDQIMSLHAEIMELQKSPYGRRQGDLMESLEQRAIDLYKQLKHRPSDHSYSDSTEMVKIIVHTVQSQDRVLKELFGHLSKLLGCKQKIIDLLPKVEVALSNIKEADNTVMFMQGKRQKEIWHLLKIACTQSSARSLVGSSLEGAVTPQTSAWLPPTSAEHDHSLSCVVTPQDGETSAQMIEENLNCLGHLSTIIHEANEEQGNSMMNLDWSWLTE
Nature of the assay: Inhibition of I-kappa-B-kinase alpha.

On to `N#Cc1c(C(N)Cc2ccc(F)cc2)cc(-c2ccccc2O)nc1N` (stereo not given), for which the IC50 in assay [1] was determined as 5000 nM; in assay [2], 40 nM.

Regarding `COc1ccc(CC(N)c2cc(-c3ccccc3O)nc(N)c2C#N)cc1` (stereo not given), the values for the IC50 in assay [1] and in assay [2] were 5000 nM and 80 nM, respectively.

Consider `N#Cc1c(C2CCNCC2)cc(-c2ccccc2O)nc1N`, for which the values for the IC50 in assay [1] and in assay [2] were 400 nM and 300 nM, respectively.

On to `N#Cc1c(C2CCCNC2)cc(-c2ccccc2O)nc1N` (stereo not given), for which the IC50 in assay [3] is 600 nM; in assay [4], 400 nM; in assay [1], 300 nM; in assay [2] it was 25 nM; in assay [5] it was over 20000 nM; in assay [6] it was 450 nM.

As to `N#Cc1c(C2CCCNC2)cc(-c2ccccc2)nc1N` (stereo not given), the IC50 in assay [2] was over 20000 nM.

In the case of `CCCCC(N)c1cc(-c2ccccc2O)nc(N)c1C#N` (stereo not given), the IC50 in assay [1] is 15000 nM; in assay [2], 480 nM.

Turning to `CN1CCCC(c2cc(-c3ccccc3O)nc(N)c2C#N)C1` (stereo not given), the half-maximal inhibitory concentration (IC50) is 1000 nM in assay [1] and 230 nM in assay [2].

Regarding `N#Cc1c(C(N)CCc2ccccc2)cc(-c2ccccc2O)nc1N` (stereo not given), the IC50 in assay [1] was determined as 15000 nM; in assay [2], 730 nM.

As for `N#Cc1c(C(N)Cc2ccccc2)cc(-c2ccccc2O)nc1N` (stereo not given), the IC50 in assay [1] came to 8000 nM; in assay [2] it was 60 nM.

As for `CC(=O)Nc1nc(-c2ccccc2O)cc(C2CCCNC2)c1C#N` (stereo not given), the results for the IC50 in assay [1] and in assay [2] were 1500 nM and 330 nM, respectively.

`N#Cc1c(-c2cccnc2)cc(-c2ccccc2O)nc1N`: the IC50 in assay [2] came to 6200 nM.

For the compound `N#Cc1c(N)nc(-c2ccccc2O)c(F)c1C1CCCNC1` (stereo not given), the IC50 in assay [1] worked out at 2000 nM; in assay [2] it was 230 nM.

For `N#Cc1c(CCN)cc(-c2ccccc2O)nc1N`, the IC50 in assay [1] amounted to 800 nM; in assay [2], 70 nM.

As to `N#Cc1c(CC(N)c2ccccc2)cc(-c2ccccc2O)nc1N` (stereo not given), the IC50 was determined as 2000 nM in assay [1] and 110 nM in assay [2].

As to `CC(C)C(N)c1cc(-c2ccccc2O)nc(N)c1C#N` (stereo not given), the figures for the IC50 in assay [1] and in assay [2] were 5000 nM and 240 nM, respectively.

In the case of `CC(N)Cc1cc(-c2ccccc2O)nc(N)c1C#N` (stereo not given), the figures for the IC50 in assay [1] and in assay [2] were 3000 nM and 470 nM, respectively.

Turning to `CNc1nc(-c2ccccc2O)cc(C2CCCNC2)c1C#N` (stereo not given), the IC50 was 20 nM in assay [1] and 6500 nM in assay [2].

As for `N#Cc1c(C2CCCCN2)cc(-c2ccccc2O)nc1N` (stereo not given), the IC50 in assay [1] was 6000 nM; in assay [2], 530 nM.

In the case of `CC(N)c1cc(-c2ccccc2O)nc(N)c1C#N` (stereo not given), the IC50 in assay [1] stood at 4000 nM; in assay [2], 150 nM.
